The subject of assay [1] is keloid and hypertrophic scar cells. The settings on record: stated to correspond to about 0.01% tamoxifen citrate; cited from earlier work.
In a further assay the test system is fibroblast cells. The settings on record: cited from earlier work.
Another assay has as its system collagen. Particulars: cited from earlier work.
A further assay deals with TGF-β. The experiment in a line: luciferase bioassay utilizing mink lung epithelial cells for total TGF-β in keloid fibroblasts culture. The settings on record: 48-hour exposure. Type of assay: cell-based. The source says: TGF-β is correlated with luciferase activity and reported in relative light units.

Where a name gives a salt, the structure may show the parent alone.

Regarding `CC/C(=C(\c1ccccc1)c1ccc(OCCN(C)C)cc1)c1ccccc1` [tamoxifen citrate], the “concentrations having a deadly effect on keloid and hypertrophic scar cells” value in assay [1] is reported as “greater than 20 μM”. The “proliferation of normal dermal and keloid fibroblasts” value in the assay on fibroblast cells is “decrease proliferation”. The “synthesis of collagen by keloid fibroblasts” value with collagen was “decreasing the synthesis of collagen”. In the assay on TGF-β, the “total TGF-β levels” value is “dose-dependent decrease”. Besides, in the assay with TGF-β (about 8 μM), the “percent reduction of TGF-β” value is “about 75%”. Moreover, the “TGF-β level after treatment” value in the assay with TGF-β (about 8 μM, reduced from about 200 pg/ml) is given as “about 50 pg/ml”.

Values taken from US20140350117A1, “Topical Scar Treatment Composition and Method of Using Same” (PROFESSIONAL COMPOUNDING CENTERS OF AMERICA, priority 2013, published 2014).
